Results published in patent publication US11833254B2, “Discoidal nano universal platform for efficient delivery of PNAs” (University of Connecticut, priority 2020, dated 2023).
{ooo} = Boc-miniPEG-3 linker between TAMRA and the PNA; {TAMRA} = TAMRA dye conjugated to the PNA N-terminus; {Lys} = C-terminal lysine residue of the PNA

Assay: Negative-stain transmission electron microscopy (TEM) of lipid/PNA complexes
Format: physicochemical
Method: Transmission electron microscopy (TEM): Negatively-stained transmission electron microscopic (TEM) images were obtained using FEI Tecnai T12. The samples were prepared by spreading 5 μL 0.001 wt. % solution on a 400 mesh Formvar/carbon film copper grid (Electron Microscopy Sciences, PA, USA) and negative staining was applied with 10 mg/mL of Uranyl acetate (SPI Supplies, PA, USA). The grids were then dried at 25° C. The accelerating voltage of the TEM was set at 80 kV.

Substance | morphology (TEM)
5′ TAMRA-ooo-TCAGCCGCTGTCACACGCACAG-Lys-3′ (all peptide nucleic acid (PNA), 5' {TAMRA}-{ooo}, 3' {Lys}) [PNA-210] | uniform discoidal morphology
5′ TAMRA-ooo-ACCCCTATCACGATTAGCATTAA-Lys 3′ (all peptide nucleic acid (PNA), 5' {TAMRA}-{ooo}, 3' {Lys}) [PNA-155] | uniform discoidal morphology
